Data reported in PMC10794144, “A novel antibiotic class targeting the lipopolysaccharide transporter” (Nature, 2024).
In brackets after ≈: the same amount, converted by molar mass.

Tested on: A. baumannii
Assay: microbe, parasite or virus in culture
Procedure, shortened: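 MIC was taken as the lowest concentration without visible growth, or past which OD600 no longer fell. Testing followed CLSI M07 and M100 broth microdilution, using 0.5 McFarland-derived inocula in CAMHB (LB for A. baylyi isolates).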

CN1C(=O)[C@H](CCCCN)NC(=O)[C@H](CCCN)NCc2cccnc2Sc2c(Cl)ccc(Cl)c2CNC(=O)[C@@H]1Cc1c[nH]c2ccccc12 [RO7075573] was tested, and the “MIC 80%” value (ROB08707, Study ROC012) was 0.12 µg/mL (≈ 0.162 µM), the “MIC 100%” value (ROB08707, Study ROC012) was 32 µg/mL (≈ 43.3 µM) and the “MIC 80%” value (ROB08708, Study LGC281440) was at most 0.06 µg/mL. The “MIC 100%” value (ROB08708, Study LGC281440) was 16 µg/mL (≈ 21.6 µM), the “MIC 80%” value (ROB08708, Study LGC282160) was 0.12 µg/mL (≈ 0.162 µM) and the “MIC 100%” value (ROB08708, Study LGC282160) was 64 µg/mL (≈ 86.5 µM). The “MIC 80%” value (ROB08708, Study LGC284879) was 0.12 µg/mL (≈ 0.162 µM), the “MIC 100%” value (ROB08708, Study LGC284879) was over 64 µg/mL and the “MIC 80%” value (ROB08708, Study LGC285582) was at most 0.06 µg/mL. The “MIC 100%” value (ROB08708, Study LGC285582) was 64 µg/mL (≈ 86.5 µM), the “MIC 80%” value (ROB08708, Study LGC286210) was 0.12 µg/mL (≈ 0.162 µM) and the “MIC 100%” value (ROB08708, Study LGC286210) was 64 µg/mL (≈ 86.5 µM). For the same compound, the “MIC 80%” value (ROB08708, Study LGC293598) was at most 0.06 µg/mL, the “MIC 100%” value (ROB08708, Study LGC293598) was over 64 µg/mL and the “MIC 80%” value (ROB08708, Study LGC294355) was 0.12 µg/mL (≈ 0.162 µM). The “MIC 100%” value (ROB08708, Study LGC294355) was over 64 µg/mL, the “MIC 80%” value (ROB08708, Study LGC295147) was 0.12 µg/mL (≈ 0.162 µM) and the “MIC 100%” value (ROB08708, Study LGC295147) was 64 µg/mL (≈ 86.5 µM). For the same compound, the “MIC 80%” value (ROB08708, Study LGC296813) was 0.12 µg/mL (≈ 0.162 µM), the “MIC 100%” value (ROB08708, Study LGC296813) was over 64 µg/mL and the “MIC 80%” value (ROB08708, Study LGC299544) was 0.12 µg/mL (≈ 0.162 µM). For the same compound, the “MIC 100%” value (ROB08708, Study LGC299544) was 64 µg/mL (≈ 86.5 µM), the “MIC 80%” value (ROB08708, Study LGC301026) was 0.12 µg/mL (≈ 0.162 µM) and the “MIC 100%” value (ROB08708, Study LGC301026) was over 64 µg/mL. The “MIC 80%” value (ROB08708, Study LGC308175) was at most 0.06 µg/mL, the “MIC 100%” value (ROB08708, Study LGC308175) was 64 µg/mL (≈ 86.5 µM) and the “MIC 80%” value (ROB08708, Study ROC010) was 0.12 µg/mL (≈ 0.162 µM). For the same compound, the “MIC 100%” value (ROB08708, Study ROC010) was 16 µg/mL (≈ 21.6 µM), the “MIC 80%” value (ROB08708, Study ROC012) was 0.12 µg/mL (≈ 0.162 µM) and the “MIC 100%” value (ROB08708, Study ROC012) was 64 µg/mL (≈ 86.5 µM). The “MIC 80%” value (ROB08709, Study LGC281440) was 0.12 µg/mL (≈ 0.162 µM), the “MIC 100%” value (ROB08709, Study LGC281440) was 16 µg/mL (≈ 21.6 µM) and the “MIC 80%” value (ROB08709, Study LGC282160) was 0.12 µg/mL (≈ 0.162 µM). The “MIC 100%” value (ROB08709, Study LGC282160) was over 64 µg/mL, the “MIC 80%” value (ROB08709, Study LGC284879) was 0.25 µg/mL (≈ 0.338 µM) and the “MIC 100%” value (ROB08709, Study LGC284879) was over 64 µg/mL. The “MIC 80%” value (ROB08709, Study LGC285582) was 0.12 µg/mL (≈ 0.162 µM), the “MIC 100%” value (ROB08709, Study LGC285582) was 64 µg/mL (≈ 86.5 µM) and the “MIC 80%” value (ROB08709, Study LGC286210) was 0.12 µg/mL (≈ 0.162 µM). For the same compound, the “MIC 100%” value (ROB08709, Study LGC286210) was 64 µg/mL (≈ 86.5 µM), the “MIC 80%” value (ROB08709, Study LGC293598) was 0.12 µg/mL (≈ 0.162 µM) and the “MIC 100%” value (ROB08709, Study LGC293598) was over 64 µg/mL. The “MIC 80%” value (ROB08709, Study LGC294355) was 0.12 µg/mL (≈ 0.162 µM), the “MIC 100%” value (ROB08709, Study LGC294355) was over 64 µg/mL and the “MIC 80%” value (ROB08709, Study LGC295147) was 0.12 µg/mL (≈ 0.162 µM). For the same compound, the “MIC 100%” value (ROB08709, Study LGC295147) was 64 µg/mL (≈ 86.5 µM), the “MIC 80%” value (ROB08709, Study LGC296813) was 0.12 µg/mL (≈ 0.162 µM) and the “MIC 100%” value (ROB08709, Study LGC296813) was 64 µg/mL (≈ 86.5 µM). The “MIC 80%” value (ROB08709, Study LGC299544) was 0.25 µg/mL (≈ 0.338 µM), the “MIC 100%” value (ROB08709, Study LGC299544) was 64 µg/mL (≈ 86.5 µM) and the “MIC 80%” value (ROB08709, Study LGC301026) was 0.12 µg/mL (≈ 0.162 µM). The “MIC 100%” value (ROB08709, Study LGC301026) was 64 µg/mL (≈ 86.5 µM), the “MIC 80%” value (ROB08709, Study LGC308175) was 0.12 µg/mL (≈ 0.162 µM) and the “MIC 100%” value (ROB08709, Study LGC308175) was over 64 µg/mL. The “MIC 80%” value (ROB08709, Study ROC010) was 0.25 µg/mL (≈ 0.338 µM), the “MIC 100%” value (ROB08709, Study ROC010) was 64 µg/mL (≈ 86.5 µM) and the “MIC 80%” value (ROB08709, Study ROC012) was 0.25 µg/mL (≈ 0.338 µM). For the same compound, the “MIC 100%” value (ROB08709, Study ROC012) was 64 µg/mL (≈ 86.5 µM), the “MIC 80%” value (ROB08710, Study LGC281440) was 0.25 µg/mL (≈ 0.338 µM) and the “MIC 100%” value (ROB08710, Study LGC281440) was 8 µg/mL (≈ 10.8 µM). For the same compound, the “MIC 80%” value (ROB08710, Study LGC282160) was 0.25 µg/mL (≈ 0.338 µM), the “MIC 100%” value (ROB08710, Study LGC282160) was 64 µg/mL (≈ 86.5 µM) and the “MIC 80%” value (ROB08710, Study LGC284879) was 0.25 µg/mL (≈ 0.338 µM). The “MIC 100%” value (ROB08710, Study LGC284879) was over 64 µg/mL, the “MIC 80%” value (ROB08710, Study LGC285582) was 0.25 µg/mL (≈ 0.338 µM) and the “MIC 100%” value (ROB08710, Study LGC285582) was 64 µg/mL (≈ 86.5 µM). The “MIC 80%” value (ROB08710, Study LGC286210) was 0.12 µg/mL (≈ 0.162 µM), the “MIC 100%” value (ROB08710, Study LGC286210) was 64 µg/mL (≈ 86.5 µM) and the “MIC 80%” value (ROB08710, Study LGC293598) was 0.12 µg/mL (≈ 0.162 µM). For the same compound, the “MIC 100%” value (ROB08710, Study LGC293598) was over 64 µg/mL, the “MIC 80%” value (ROB08710, Study LGC294355) was 0.5 µg/mL (≈ 0.676 µM) and the “MIC 100%” value (ROB08710, Study LGC294355) was over 64 µg/mL. For the same compound, the “MIC 80%” value (ROB08710, Study LGC295147) was 0.12 µg/mL (≈ 0.162 µM), the “MIC 100%” value (ROB08710, Study LGC295147) was 32 µg/mL (≈ 43.3 µM) and the “MIC 80%” value (ROB08710, Study LGC296813) was 0.12 µg/mL (≈ 0.162 µM). The “MIC 100%” value (ROB08710, Study LGC296813) was 64 µg/mL (≈ 86.5 µM), the “MIC 80%” value (ROB08710, Study LGC299544) was 0.5 µg/mL (≈ 0.676 µM) and the “MIC 100%” value (ROB08710, Study LGC299544) was 64 µg/mL (≈ 86.5 µM). The “MIC 80%” value (ROB08710, Study LGC301026) was 0.12 µg/mL (≈ 0.162 µM), the “MIC 100%” value (ROB08710, Study LGC301026) was 64 µg/mL (≈ 86.5 µM) and the “MIC 80%” value (ROB08710, Study LGC308175) was 0.12 µg/mL (≈ 0.162 µM). For the same compound, the “MIC 100%” value (ROB08710, Study LGC308175) was 32 µg/mL (≈ 43.3 µM), the “MIC 80%” value (ROB08710, Study ROC010) was 0.25 µg/mL (≈ 0.338 µM) and the “MIC 100%” value (ROB08710, Study ROC010) was 0.5 µg/mL (≈ 0.676 µM). The “MIC 80%” value (ROB08710, Study ROC012) was 0.25 µg/mL (≈ 0.338 µM), the “MIC 100%” value (ROB08710, Study ROC012) was 32 µg/mL (≈ 43.3 µM) and the “Fold more potent than RO7036668” value (panel of A. baumannii) was 4- to 64 fold.
